Results from PubChem BioAssay AID256 (DTP/NCI, 2004).
Toxic doses and inconclusive results are not listed. The calls were made as follows: active = survival T/C of 150% or more; inactive = T/C below 125% in these data.

Test system: CD2F1 mice, L1210 leukemia ip, survival T/C
Experiment: NCI In Vivo Anticancer Drug Screen. Data for tumor model L1210 Leukemia (intraperitoneal) in CD2F1 (CDF1) mice
Settings: endpoint: mean survival time, higher = longer survival
Procedure, shortened: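 Vehicle-treated tumor-bearing mice served as controls (C) for compound-treated mice (T). Reported figure is T divided by C.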

[1] = dose: 50.0 mg/kg/injection, schedule: Q01DX009 (ip), vehicle: saline with Tween-80
[2] = dose: 100.0 mg/kg/injection, schedule: Q01DX009 (ip), vehicle: saline with Tween-80
[3] = dose: 200.0 mg/kg/injection, schedule: Q01DX009 (ip), vehicle: saline with Tween-80
[4] = dose: 100.0 mg/kg/injection, schedule: Q01DX001 (ip), vehicle: Klucel (hydroxypropylcellulose) (HPC)
[5] = dose: 200.0 mg/kg/injection, schedule: Q01DX001 (ip), vehicle: Klucel (hydroxypropylcellulose) (HPC)
[6] = dose: 100.0 mg/kg/injection, schedule: Q04DX003 (ip), vehicle: saline with Tween-80
[7] = dose: 200.0 mg/kg/injection, schedule: Q04DX003 (ip), vehicle: saline with Tween-80
[8] = dose: 400.0 mg/kg/injection, schedule: Q01DX009 (ip), vehicle: saline with Tween-80
[9] = dose: 400.0 mg/kg/injection, schedule: Q04DX003 (ip), vehicle: saline with Tween-80

Measured: T/C

CCC(C)C1NC(=O)C(NC(=O)c2c3nc4c(C(=O)NC5C(=O)NC(C(C)CC)C(=O)N6CCCC6C(=O)N(C)CC(=O)N(C)C(C(C)C)C(=O)OC5C)cc([N+](=O)[O-])c(C)c4oc-3c(C)c(=O)c2N)C(C)OC(=O)C(C(C)C)N(C)C(=O)CN(C)C(=O)C2CCCN2C1=O (centres undefined)
inactive: dose: 0.05 mg/kg/injection, schedule: Q01DX009 (ip), vehicle: water 107 % of control | dose: 0.1 mg/kg/injection, schedule: Q01DX009 (ip), vehicle: water 116 % of control | dose: 0.2 mg/kg/injection, schedule: Q01DX009 (ip), vehicle: water 112 % of control | dose: 0.4 mg/kg/injection, schedule: Q01DX009 (ip), vehicle: water 94 % of control

O=C1C2=C(CCCC2)CN1c1ccccc1
inactive: [1] 98 % of control | [2] 98 % of control | [3] 107 % of control

CC1CCCCN1C(=O)Nc1c(Cl)cccc1Cl (centres undefined)
inactive: [1] 98 % of control | [2] 105 % of control | [3] 94 % of control

C=CC(C)n1c(=O)c2c(ncn2C)n(C)c1=O (centres undefined)
inactive: dose: 0.78 mg/kg/injection, schedule: Q04DX003 (ip), vehicle: saline with Tween-80 102 % of control | dose: 1.56 mg/kg/injection, schedule: Q04DX003 (ip), vehicle: saline with Tween-80 102 % of control | dose: 3.12 mg/kg/injection, schedule: Q04DX003 (ip), vehicle: saline with Tween-80 105 % of control

Nc1ccn(C2OC(CO)C3OP(=O)(O)OC32)c(=O)n1 (centres undefined)
inactive: dose: 12.5 mg/kg/injection, schedule: Q01DX005 (ip), vehicle: water 96 % of control | dose: 25.0 mg/kg/injection, schedule: Q01DX005 (ip), vehicle: water 99 % of control | dose: 50.0 mg/kg/injection, schedule: Q01DX005 (ip), vehicle: water 99 % of control | dose: 100.0 mg/kg/injection, schedule: Q01DX005 (ip), vehicle: water 94 % of control | dose: 200.0 mg/kg/injection, schedule: Q01DX005 (ip), vehicle: water 96 % of control

Cc1nc(=S)c2ccccc2[nH]1
inactive: [4] 97 % of control | [5] 94 % of control | dose: 400.0 mg/kg/injection, schedule: Q01DX001 (ip), vehicle: Klucel (hydroxypropylcellulose) (HPC) 100 % of control

NNC(=O)CNc1cccc(Br)c1
inactive: dose: 12.5 mg/kg/injection, schedule: Q01DX009 (ip), vehicle: Klucel (hydroxypropylcellulose) (HPC) 98 % of control | dose: 25.0 mg/kg/injection, schedule: Q01DX009 (ip), vehicle: Klucel (hydroxypropylcellulose) (HPC) 101 % of control | dose: 50.0 mg/kg/injection, schedule: Q01DX009 (ip), vehicle: Klucel (hydroxypropylcellulose) (HPC) 101 % of control | dose: 50.0 mg/kg/injection, schedule: Q04DX003 (ip), vehicle: Klucel (hydroxypropylcellulose) (HPC) 101 % of control | [4] 102 % of control | dose: 100.0 mg/kg/injection, schedule: Q01DX009 (ip), vehicle: Klucel (hydroxypropylcellulose) (HPC) 97 % of control | dose: 100.0 mg/kg/injection, schedule: Q04DX003 (ip), vehicle: Klucel (hydroxypropylcellulose) (HPC) 98 % of control | [5] 98 % of control | dose: 200.0 mg/kg/injection, schedule: Q04DX003 (ip), vehicle: Klucel (hydroxypropylcellulose) (HPC) 111 % of control

O=C(O)C(Br)C(Br)c1ccccc1[N+](=O)[O-] (centres undefined)
inactive: dose: 12.5 mg/kg/injection, schedule: Q01DX009 (ip), vehicle: other 96 % of control | dose: 25.0 mg/kg/injection, schedule: Q01DX009 (ip), vehicle: other 103 % of control | dose: 50.0 mg/kg/injection, schedule: Q01DX009 (ip), vehicle: other 100 % of control | dose: 100.0 mg/kg/injection, schedule: Q01DX009 (ip), vehicle: other 102 % of control | dose: 200.0 mg/kg/injection, schedule: Q01DX009 (ip), vehicle: other 97 % of control

Nc1nc(N)c(N)c(/C=C/c2ccccc2)n1
inactive: dose: 0.32 mg/kg/injection, schedule: Q01DX009 (ip), vehicle: other 101 % of control | dose: 0.63 mg/kg/injection, schedule: Q01DX009 (ip), vehicle: other 106 % of control | dose: 0.63 mg/kg/injection, schedule: Q01DX009 (ip), vehicle: water 97 % of control | dose: 1.25 mg/kg/injection, schedule: Q01DX009 (ip), vehicle: other 98 % of control | dose: 1.25 mg/kg/injection, schedule: Q01DX009 (ip), vehicle: water 103 % of control | dose: 2.5 mg/kg/injection, schedule: Q01DX009 (ip), vehicle: other 101 % of control | dose: 2.5 mg/kg/injection, schedule: Q01DX009 (ip), vehicle: water 97 % of control | dose: 5.0 mg/kg/injection, schedule: Q01DX009 (ip), vehicle: other 101 % of control | dose: 5.0 mg/kg/injection, schedule: Q01DX009 (ip), vehicle: water 97 % of control

O=C(O)/C=C\C(=O)Nc1ccccc1
inactive: [2] 93 % of control | [6] 109 % of control | [3] 96 % of control | [7] 101 % of control | [8] 96 % of control | [9] 97 % of control

CCCCOC(=O)/C=C/C(=O)OCCCC
inactive: [6] 102 % of control | [7] 102 % of control | [9] 105 % of control

CCOC(=O)c1cc(=O)[nH]c2ccc(OC)cc12
inactive: [2] 98 % of control | [3] 104 % of control | [8] 104 % of control

CCCCCCCCCCCCCCCc1cc(=O)n(-c2ccc(C(=O)OCC)cc2)n1C
inactive: [2] 92 % of control | [6] 97 % of control | [3] 86 % of control | [7] 88 % of control | [9] 100 % of control

COC1OC(COS(C)(=O)=O)C(OS(C)(=O)=O)C(OS(C)(=O)=O)C1OS(C)(=O)=O (centres undefined)
inactive: [2] 95 % of control | [3] 101 % of control | [8] 94 % of control

N#CC(O)Cc1ccccc1 (centres undefined)
inactive: dose: 5.0 mg/kg/injection, schedule: Q04DX003 (ip), vehicle: saline 98 % of control | dose: 10.0 mg/kg/injection, schedule: Q04DX003 (ip), vehicle: saline 98 % of control

COc1ccc(O)c(C=O)c1
inactive: [6] 100 % of control | [7] 110 % of control | [9] 95 % of control

CN(C)CCCN1c2ccccc2Sc2ccc(C(F)(F)F)cc21
inactive: dose: 12.5 mg/kg/injection, schedule: Q01DX009 (ip), vehicle: saline 106 % of control | dose: 12.5 mg/kg/injection, schedule: Q04DX003 (ip), vehicle: saline 100 % of control | dose: 16.5 mg/kg/injection, schedule: Q01DX009 (ip), vehicle: saline with Tween-80 103 % of control | dose: 25.0 mg/kg/injection, schedule: Q01DX001 (ip), vehicle: saline 100 % of control | dose: 25.0 mg/kg/injection, schedule: Q01DX009 (ip), vehicle: saline with Tween-80 88 % of control | dose: 25.0 mg/kg/injection, schedule: Q01DX009 (ip), vehicle: saline 120 % of control | dose: 25.0 mg/kg/injection, schedule: Q04DX003 (ip), vehicle: saline 115 % of control | dose: 37.5 mg/kg/injection, schedule: Q01DX009 (ip), vehicle: saline with Tween-80 94 % of control | dose: 50.0 mg/kg/injection, schedule: Q01DX001 (ip), vehicle: saline 104 % of control | dose: 50.0 mg/kg/injection, schedule: Q04DX003 (ip), vehicle: saline 118 % of control
